In patent US20260184663A1, “INDENE COMPOUNDS, PHARMACEUTICAL COMPOSITIONS THEREOF, AND THEIR THERAPEUTIC APPLICATIONS” (NucMito Pharmaceuticals co. Ltd., priority 2022, published 2026):

How the values were obtained:
Format in all cases: cell-based
[1] = test system: MDA-MB-231 (breast cancer); assay: Antiproliferative activity (CCK-8 cell viability), MDA-MB-231; details: Homo sapiens, 72 h; for inhibition at 3.3 µM: Compound concentration: 3.3 μM; for inhibition at 3.3 µM / inhibition at 10 µM: read-out: Antiproliferative activity in cancerous cells, MDA-MB-231 (inhibition of cell growth); for inhibition at 10 µM: Compound concentration: 10 μM; for inhibition at 30 µM: Compound concentration: 30 μM, read-out: Antiproliferative activity in cancerous cells, MDA-MB-231
Summary of the method: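 Growth inhibition of human MDA-MB-231 breast cancer cells was assessed with a Cell Counting Kit-8. Cells cultured in DMEM plus 10% FBS were seeded at 2,000-5,000 cells/well, treated after attachment, and kept 72 h at 37° C. CCK-8 solution (10 μL) was added for 4 h, and absorbance at 450 nm was compared with DMSO-treated controls.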

HepG2 (liver cancer) = assay: Antiproliferative activity (CCK-8 cell viability), HepG2; details: Homo sapiens, 72 h; for inhibition at 3.3 µM: Compound concentration: 3.3 μM; for inhibition at 3.3 µM / inhibition at 10 µM: read-out: Antiproliferative activity in cancerous cells, HepG2 (inhibition of cell growth); for inhibition at 10 µM: Compound concentration: 10 μM
Summary of the method: (§1)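 Growth inhibition graded in bands from percent viability against DMSO vehicle, read as CCK-8 absorbance at 450 nm. Compound tested at 3.3, 10 or 30 μM for 72 h, 37 °C; media contained 10% FBS: DMEM for HepG2/SW480, MEM for HeLa, F-12K for A549.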

SW480 (colon cancer) = assay: Antiproliferative activity (CCK-8 cell viability), SW480; details: Homo sapiens, 72 h; for inhibition at 3.3 µM: Compound concentration: 3.3 μM; for inhibition at 3.3 µM / inhibition at 10 µM: read-out: Antiproliferative activity in cancerous cells, SW480 (inhibition of cell growth); for inhibition at 10 µM: Compound concentration: 10 μM
Summary of the method: as §1

[2] = test system: B16F10 (malignant melanoma); assay: Antiproliferative activity (CCK-8 cell viability), B16F10; details: Mus musculus, 72 h; for inhibition at 3.3 µM: B16-F10, Compound concentration: 3.3 μM; for inhibition at 3.3 µM / inhibition at 10 µM: read-out: Antiproliferative activity in cancerous cells, B16F10 (inhibition of cell growth); for inhibition at 10 µM: B16-F10, Compound concentration: 10 μM
Summary of the method: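 Cell growth inhibition was measured in B16F10 malignant melanoma cells with a Cell Counting Kit-8 viability assay. Cells were maintained in DMEM plus 10% fetal bovine serum, seeded at 2,000-5,000 cells/well in 96-well plates, and treated for 72 h at 37° C. Viability was expressed relative to DMSO-treated vehicle control wells.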

[3] = test system: A431 (epidermoid carcinoma); assay: Antiproliferative activity (CCK-8 cell viability), A431; details: Homo sapiens, 72 h; for inhibition at 3.3 µM: A-431, Compound concentration: 3.3 μM; for inhibition at 3.3 µM / inhibition at 10 µM: read-out: Antiproliferative activity in cancerous cells, A431 (inhibition of cell growth); for inhibition at 10 µM: A-431, Compound concentration: 10 μM
Summary of the method: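 This growth inhibition assay used A431 cells maintained in Dulbecco's modified Eagle's medium plus 10% fetal bovine serum. Cells were seeded in 96-well plates, treated with compound for 72 h at 37° C., and then given 10 μL CCK-8 solution. After a further 4 h, absorbance was read at 450 nm.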

[4] = test system: A549 (lung adenocarcinoma); assay: Antiproliferative activity (CCK-8 cell viability), A549; details: Homo sapiens, 72 h; for inhibition at 3.3 µM: Compound concentration: 3.3 μM; for inhibition at 3.3 µM / inhibition at 10 µM: read-out: Antiproliferative activity in cancerous cells, A549 (inhibition of cell growth); for inhibition at 10 µM: Compound concentration: 10 μM
Summary of the method: as §1

HeLa (cervical cancer) = assay: Antiproliferative activity (CCK-8 cell viability), HeLa; details: Homo sapiens, 72 h, read-out: Antiproliferative activity in cancerous cells, HELA (inhibition of cell growth); for inhibition at 3.3 µM: Compound concentration: 3.3 μM; for inhibition at 10 µM: Compound concentration: 10 μM
Summary of the method: as §1

## CC1=C(CC(=O)O)c2cc(Cl)c(Cl)cc2/C1=C\c1ccc(Oc2ccc(F)cc2)cc1 [C83, (Z)-2-(5,6-Dichloro-1-(4-(4-fluorophenoxy)benzylidene)-2-methyl-1H-inden-3-yl)acetic acid]
[1]
  inhibition at 3.3 µM: ≥ 50%
  inhibition at 10 µM: ≥ 50%
HepG2 (liver cancer)
  inhibition at 3.3 µM: < 30%
  inhibition at 10 µM: ≥ 50%
SW480 (colon cancer)
  inhibition at 3.3 µM: ≥ 50%
  inhibition at 10 µM: ≥ 50%
[2]
  inhibition at 3.3 µM: ≥ 50%
  inhibition at 10 µM: ≥ 50%
[3]
  inhibition at 3.3 µM: ≥ 50%
  inhibition at 10 µM: ≥ 50%
[4]
  inhibition at 3.3 µM: ≥ 50%
  inhibition at 10 µM: ≥ 50%
HeLa (cervical cancer)
  inhibition at 3.3 µM: ≥ 50%
  inhibition at 10 µM: ≥ 50%

## CC1=C(CC(=O)O)c2cc(Cl)ccc2/C1=C\c1ccc(Oc2ccc(C(C)C)cc2)cc1 [C84, (Z)-2-(5-Chloro-1-(4-(4-isopropylphenoxy)benzylidene)-2-methyl-1H-inden-3-yl)acetic acid]
[1]
  inhibition at 3.3 µM: ≥ 50%
  inhibition at 10 µM: ≥ 50%
HepG2 (liver cancer)
  inhibition at 3.3 µM: ≥ 50%
  inhibition at 10 µM: ≥ 50%
SW480 (colon cancer)
  inhibition at 3.3 µM: ≥ 50%
  inhibition at 10 µM: ≥ 50%
[2]
  inhibition at 3.3 µM: ≥ 50%
  inhibition at 10 µM: ≥ 50%
[3]
  inhibition at 3.3 µM: ≥ 50%
  inhibition at 10 µM: ≥ 50%
[4]
  inhibition at 3.3 µM: ≥ 50%
  inhibition at 10 µM: ≥ 50%
HeLa (cervical cancer)
  inhibition at 3.3 µM: ≥ 50%
  inhibition at 10 µM: ≥ 50%

## CCc1ccc(Oc2ccc(/C=C3/C(C)=C(CC(=O)O)c4cc(Cl)ccc43)cc2)cc1 [C85, (Z)-2-(5-Chloro-1-(4-(4-ethylphenoxy)benzylidene)-2-methyl-1H-inden-3-yl)acetic acid]
[1]
  inhibition at 3.3 µM: ≥ 50%
  inhibition at 10 µM: ≥ 50%
HepG2 (liver cancer)
  inhibition at 3.3 µM: ≥ 50%
  inhibition at 10 µM: ≥ 50%
SW480 (colon cancer)
  inhibition at 3.3 µM: < 30%
  inhibition at 10 µM: ≥ 50%
[2]
  inhibition at 3.3 µM: 30 to 50%
  inhibition at 10 µM: ≥ 50%
[3]
  inhibition at 3.3 µM: ≥ 50%
  inhibition at 10 µM: ≥ 50%
[4]
  inhibition at 3.3 µM: < 30%
  inhibition at 10 µM: ≥ 50%
HeLa (cervical cancer)
  inhibition at 3.3 µM: ≥ 50%
  inhibition at 10 µM: ≥ 50%

## CC1=C(CC(=O)O)c2cc(Br)ccc2/C1=C\c1ccc(Oc2ccc(F)cc2)cc1 [C86, (Z)-2-(5-Bromo-1-(4-(4-fluorophenoxy)benzylidene)-2-methyl-1H-inden-3-yl)acetic acid]
[1]
  inhibition at 3.3 µM: < 30%
  inhibition at 10 µM: < 30%
  inhibition at 30 µM: < 30%
HepG2 (liver cancer)
  inhibition at 3.3 µM: < 30%
  inhibition at 10 µM: < 30%
HepG2 (liver cancer); Compound concentration: 30 μM, read-out: Antiproliferative activity in cancerous cells, HepG2
  inhibition at 30 µM: < 30%
SW480 (colon cancer)
  inhibition at 3.3 µM: < 30%
  inhibition at 10 µM: < 30%
SW480 (colon cancer); Compound concentration: 30 μM, read-out: Antiproliferative activity in cancerous cells, SW480
  inhibition at 30 µM: < 30%
[2]
  inhibition at 3.3 µM: < 30%
  inhibition at 10 µM: 30 to 50%
[2]; B16-F10, Compound concentration: 30 μM, read-out: Antiproliferative activity in cancerous cells, B16F10
  inhibition at 30 µM: 30 to 50%
[3]
  inhibition at 3.3 µM: 30 to 50%
  inhibition at 10 µM: 30 to 50%
[3]; A-431, Compound concentration: 30 μM, read-out: Antiproliferative activity in cancerous cells, A431
  inhibition at 30 µM: 30 to 50%
[4]
  inhibition at 3.3 µM: < 30%
  inhibition at 10 µM: < 30%
[4]; Compound concentration: 30 μM, read-out: Antiproliferative activity in cancerous cells, A549
  inhibition at 30 µM: < 30%
HeLa (cervical cancer)
  inhibition at 3.3 µM: < 30%
  inhibition at 10 µM: < 30%

## CC1=C(CC(=O)O)c2c(Cl)cc(Cl)cc2/C1=C\c1ccc(Oc2ccc(F)cc2)cc1 [C87, (Z)-2-(4,6-Dichloro-1-(4-(4-fluorophenoxy)benzylidene)-2-methyl-1H-inden-3-yl)acetic acid]
[1]
  inhibition at 3.3 µM: ≥ 50%
  inhibition at 10 µM: ≥ 50%
HepG2 (liver cancer)
  inhibition at 3.3 µM: < 30%
  inhibition at 10 µM: ≥ 50%
SW480 (colon cancer)
  inhibition at 3.3 µM: < 30%
  inhibition at 10 µM: ≥ 50%
[2]
  inhibition at 3.3 µM: ≥ 50%
  inhibition at 10 µM: ≥ 50%
[3]
  inhibition at 3.3 µM: ≥ 50%
  inhibition at 10 µM: ≥ 50%
[4]
  inhibition at 3.3 µM: < 30%
  inhibition at 10 µM: ≥ 50%
HeLa (cervical cancer)
  inhibition at 3.3 µM: < 30%
  inhibition at 10 µM: ≥ 50%

## COc1ccc(Oc2cccc(/C=C3/C(C)=C(CC(=O)O)c4cc(Cl)ccc43)c2)cc1 [C92, (Z)-2-(5-Chloro-1-(3-(4-methoxyphenoxy)benzylidene)-2-methyl-1H-inden-3-yl)acetic acid]
[1]
  inhibition at 3.3 µM: < 30%
  inhibition at 10 µM: < 30%
HepG2 (liver cancer)
  inhibition at 3.3 µM: ≥ 50%
  inhibition at 10 µM: ≥ 50%
SW480 (colon cancer)
  inhibition at 3.3 µM: ≥ 50%
  inhibition at 10 µM: ≥ 50%
[2]
  inhibition at 3.3 µM: < 30%
  inhibition at 10 µM: < 30%
[3]
  inhibition at 3.3 µM: ≥ 50%
  inhibition at 10 µM: ≥ 50%
[4]
  inhibition at 3.3 µM: < 30%
  inhibition at 10 µM: ≥ 50%
HeLa (cervical cancer)
  inhibition at 3.3 µM: ≥ 50%
  inhibition at 10 µM: ≥ 50%

## CC1=C(CC(=O)O)c2cc(Cl)ccc2/C1=C\c1cccc(Oc2ccc(Cl)cc2)c1 [C93, (Z)-2-(5-Chloro-1-(3-(4-chlorophenoxy)benzylidene)-2-methyl-1H-inden-3-yl)acetic acid]
[1]
  inhibition at 3.3 µM: < 30%
  inhibition at 10 µM: ≥ 50%
  inhibition at 30 µM: < 30%
HepG2 (liver cancer)
  inhibition at 3.3 µM: ≥ 50%
  inhibition at 10 µM: ≥ 50%
SW480 (colon cancer)
  inhibition at 3.3 µM: < 30%
  inhibition at 10 µM: 30 to 50%
[2]
  inhibition at 3.3 µM: ≥ 50%
  inhibition at 10 µM: ≥ 50%
[3]
  inhibition at 3.3 µM: ≥ 50%
  inhibition at 10 µM: ≥ 50%
[4]
  inhibition at 3.3 µM: < 30%
  inhibition at 10 µM: ≥ 50%
HeLa (cervical cancer)
  inhibition at 3.3 µM: < 30%
  inhibition at 10 µM: ≥ 50%

## CC1=C(CC(=O)O)c2cc(Cl)ccc2/C1=C\c1cccc(Oc2ccc(C#N)cc2)c1 [C94, (Z)-2-(5-Chloro-1-(3-(4-cyanophenoxy)benzylidene)-2-methyl-1H-inden-3-yl)acetic acid]
[1]
  inhibition at 3.3 µM: < 30%
  inhibition at 10 µM: 30 to 50%
HepG2 (liver cancer)
  inhibition at 3.3 µM: < 30%
  inhibition at 10 µM: ≥ 50%
SW480 (colon cancer)
  inhibition at 3.3 µM: < 30%
  inhibition at 10 µM: < 30%
[2]
  inhibition at 3.3 µM: 30 to 50%
  inhibition at 10 µM: 30 to 50%
[3]
  inhibition at 3.3 µM: ≥ 50%
  inhibition at 10 µM: ≥ 50%
[4]
  inhibition at 3.3 µM: < 30%
  inhibition at 10 µM: ≥ 50%
HeLa (cervical cancer)
  inhibition at 3.3 µM: < 30%
  inhibition at 10 µM: ≥ 50%

## CC1=C(CC(=O)O)c2cc(F)ccc2/C1=C\c1cccc(Oc2ccc(C)cc2)c1 [C96, (Z)-2-(5-Fluoro-2-methyl-1-(3-(p-tolyloxy)benzylidene)-1H-inden-3-yl)acetic acid]
[1]
  inhibition at 3.3 µM: < 30%
  inhibition at 10 µM: < 30%
HepG2 (liver cancer)
  inhibition at 3.3 µM: 30 to 50%
  inhibition at 10 µM: ≥ 50%
SW480 (colon cancer)
  inhibition at 3.3 µM: < 30%
  inhibition at 10 µM: < 30%
[2]
  inhibition at 3.3 µM: 30 to 50%
  inhibition at 10 µM: 30 to 50%
[3]
  inhibition at 3.3 µM: ≥ 50%
  inhibition at 10 µM: ≥ 50%
[4]
  inhibition at 3.3 µM: < 30%
  inhibition at 10 µM: ≥ 50%
HeLa (cervical cancer)
  inhibition at 3.3 µM: 30 to 50%
  inhibition at 10 µM: ≥ 50%

## CC1=C(CC(=O)O)c2cc(F)ccc2/C1=C\c1cccc(Oc2ccc(Br)cc2)c1 [C97, (Z)-2-(1-(3-(4-Bromophenoxy)benzylidene)-5-fluoro-2-methyl-1H-inden-3-yl)acetic acid]
[1]
  inhibition at 3.3 µM: < 30%
  inhibition at 10 µM: < 30%
HepG2 (liver cancer)
  inhibition at 3.3 µM: < 30%
  inhibition at 10 µM: ≥ 50%
SW480 (colon cancer)
  inhibition at 3.3 µM: < 30%
  inhibition at 10 µM: < 30%
[2]
  inhibition at 3.3 µM: 30 to 50%
  inhibition at 10 µM: ≥ 50%
[3]
  inhibition at 3.3 µM: < 30%
  inhibition at 10 µM: < 30%
[4]
  inhibition at 3.3 µM: < 30%
  inhibition at 10 µM: 30 to 50%
HeLa (cervical cancer)
  inhibition at 3.3 µM: < 30%
  inhibition at 10 µM: ≥ 50%
